Patent publication US9023789B2, “Amylin analogs and pharmaceutical compositions thereof” (Novo Nordisk A/S, priority 2012, dated 2015)
Numbered stars: 1 amine (or outer) side, 2 acyl side, 3 side chain; on linkers, the order of the positions; unused ones are H or OH. Bridge positions count the residues as written; N and C are the ends. Side chains are listed from the residue outwards. Peptide text beside a SMILES is read from it. * marks the point of attachment. C20 diacid = O=C(O)CCCCCCCCCCCCCCCCCCC(=O)*; γGlu = O=C(O)[C@H](CCC(=O)[*:2])N[*:1]; AEEA = NCCOCCOCC(=O)O

Experiments:
[1] = biological target: T1, human amylin 3(a) receptor (human calcitonin receptor + RAMP-3) in BHK570 cells (Homo sapiens, UniProt O60896+P30988); experiment: ASSAY (II)a functional assay, human amylin receptor (CRE luciferase); type: cell-based; conditions: for EC50: human amylin receptor functional potency, assay (II), read-out: hAmylin-R funct. EC50
T1 construct: expressed in transfected cells
T1 sequence (O60896 24-148, one chain of several): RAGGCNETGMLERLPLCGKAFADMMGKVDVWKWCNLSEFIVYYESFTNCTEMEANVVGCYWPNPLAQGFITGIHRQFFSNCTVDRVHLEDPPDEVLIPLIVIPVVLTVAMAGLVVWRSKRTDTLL
Method in brief: (§1)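 Readout is luminescence from a cAMP-responsive CRE-luc reporter, developed with LucLite for 30 min at room temperature. Cells were treated for 3 h at 37 °C in 10% FBS/DMEM buffered with 10 mM Hepes (pH 7.4).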

[2] = biological target: T2, human calcitonin (a) receptor in BHK570 cells (Homo sapiens, UniProt P30988); experiment: ASSAY (II)a functional assay, human calcitonin receptor (CRE luciferase); type: cell-based; conditions: read-out: hCTR funct. EC50
T2 construct: expressed in transfected cells
T2 sequence (P30988 25-474): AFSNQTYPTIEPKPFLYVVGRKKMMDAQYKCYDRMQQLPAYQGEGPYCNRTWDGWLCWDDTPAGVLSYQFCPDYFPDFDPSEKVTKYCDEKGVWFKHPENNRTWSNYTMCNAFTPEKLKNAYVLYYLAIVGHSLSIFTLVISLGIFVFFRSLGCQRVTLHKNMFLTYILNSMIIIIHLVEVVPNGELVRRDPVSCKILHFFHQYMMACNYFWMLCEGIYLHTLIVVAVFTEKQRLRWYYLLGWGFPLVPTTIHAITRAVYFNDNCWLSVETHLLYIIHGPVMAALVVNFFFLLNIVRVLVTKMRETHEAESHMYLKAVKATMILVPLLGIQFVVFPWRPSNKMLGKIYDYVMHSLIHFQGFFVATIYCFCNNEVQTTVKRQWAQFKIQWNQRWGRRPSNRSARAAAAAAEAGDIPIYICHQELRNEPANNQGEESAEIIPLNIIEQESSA
Method in brief: as §1

[3] = ASSAY (III) ThT fibrillation assay for physical stability; type: physicochemical
Method in brief: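 Physical stability scored by ThT fluorescence (444 nm excitation, 485 nm emission) tracked every 20 min during 37 °C incubation with 960 rpm shaking, ThT at 1 μM final. Values are replicate means with SD at chosen times; HPLC against pramlintide standard gives initial and post-assay soluble concentrations.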

[4] = biological target: T3, human calcitonin receptor (Homo sapiens, UniProt P30988); experiment: ASSAY (VII) binding to the human calcitonin receptor (SPA, 125I-Calcitonin); conditions: read-out: hCTR bind IC50;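 further: cell membranes (35 ng/µL) combined with SPA beads in 40 µL of pH 7.4 Hepes buffer, 384-well format, signal counted on a TopCounter instrument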
T3 construct: expressed in transfected cells
T3 sequence (P30988 25-474): T2 sequence (P30988 25-474)
Experimental: Membranes were prepared in the following way; the cells were rinsed with PBS and incubated with Versene for approximately 5 min before harvesting. The cells were flushed with PBS and the cell-suspension was centrifuged for 5 min at 1000 rpm. […] The resulting pellet was resuspended in buffer 2 and protein concentration was measured (BCA protein Assay, Pierce). The homogenate was kept cold during the whole procedure. The membranes were kept at −80° C. until use. Assay was performed in a 384 well Optiplate (PerkinElmer) in a total volume of 40 ul. Membranes were mixed with SPA beads. Final concentration of membranes 35 ng/μL final and Final concentration of SPA beads was 0.05 mg/well. Test-compounds were dissolved in DMSO and further diluted in assay buffer (50 mM Hepes, pH 7.4, 1 mM CaCl2, 5 mM MgCl2, 0.1% OA and 0.02% Tween20). […] Samples were analyzed on TopCounter™ (Packard).

[5] = hCTR funct. EC50 / hAmylin-R funct. EC50
[6] = hCTR funct. EC50 divided by hAmylin-R funct. EC50
[7] = hCTR funct. EC50 over hAmylin-R funct. EC50
[8] = human functional selectivity: hCTR funct. EC50 / hAmylin-R funct. EC50

Structure (SMILES)	Ratio hCT/hAmylin funct. [1, 5]	Ratio hCT/hAmylin funct. [1, 6]	Ratio hCT/hAmylin funct. [1, 7]	EC50 [1]	Ratio hCT/hAmylin funct. [1, 8]	EC50 [2]	ThT pH 4.0 lag time (h) [3]	IC50 [4]
CC[C@H](C)[C@H](NC(=O)[C@H](C)NC(=O)CNC(=O)[C@H](Cc1ccccc1)NC(=O)[C@H](CC(N)=O)NC(=O)[C@@H]1CCCN1C(=O)[C@H](CO)NC(=O)[C@H](CO)NC(=O)[C@H](Cc1c[nH]cn1)NC(=O)[C@H](CCCNC(=N)N)NC(=O)[C@H](CC(C)C)NC(=O)[C@H](Cc1ccccc1)NC(=O)[C@H](C)NC(=O)[C@H](C)NC(=O)[C@H](CC(C)C)NC(=O)[C@H](CCCNC(=N)N)NC(=O)[C@H](CCC(N)=O)NC(=O)[C@@H](NC(=O)[C@H](C)NC(=O)[C@@H]1CSSC[C@H](NC(=O)[C@H](CCCNC(=N)N)NC(=O)CNC(=O)CC[C@H](NC(=O)CCCCCCCCCCCCCCCCCCC(=O)O)C(=O)O)C(=O)N[C@@H](CC(N)=O)C(=O)N[C@@H]([C@@H](C)O)C(=O)N[C@@H](C)C(=O)N[C@@H]([C@@H](C)O)C(=O)N1)[C@@H](C)O)C(=O)N1CCC[C@H]1C(=O)N[C@@H](CO)C(=O)N[C@@H](CO)C(=O)N[C@H](C(=O)N[C@@H](CC(N)=O)C(=O)N[C@H](C(=O)NCC(=O)N[C@@H](Cc1c[nH]cn1)C(=O)N[C@@H](CC(N)=O)C(=O)N[C@H](C(=O)N[C@@H](Cc1ccc(O)cc1)C(N)=O)[C@@H](C)O)C(C)C)[C@@H](C)O [Example 101] ({C20 diacid-γGlu}-GRCNTATCATQRLAAFLRHSSPNFGAIPSSTNVGHNTY-NH2; disulfide 3-8)	4.9	4.9	4.9	109 pM	4.9	537 pM	45 h	29200 pM
CC[C@H](C)[C@H](NC(=O)[C@H](C)NC(=O)CNC(=O)[C@H](Cc1ccccc1)NC(=O)[C@H](CC(N)=O)NC(=O)[C@@H]1CCCN1C(=O)[C@H](CO)NC(=O)[C@H](CO)NC(=O)[C@H](Cc1c[nH]cn1)NC(=O)[C@H](CCCNC(=N)N)NC(=O)[C@H](CC(C)C)NC(=O)[C@H](Cc1ccccc1)NC(=O)[C@H](CC(=O)O)NC(=O)[C@H](C)NC(=O)[C@H](CC(C)C)NC(=O)[C@H](CCCNC(=N)N)NC(=O)[C@H](CCC(N)=O)NC(=O)[C@@H](NC(=O)[C@H](C)NC(=O)[C@@H]1CSSC[C@H](NC(=O)[C@H](CCCCN)NC(=O)CC[C@H](NC(=O)CCCCCCCCCCCCCCCCCCC(=O)O)C(=O)O)C(=O)N[C@@H](CC(N)=O)C(=O)N[C@@H]([C@@H](C)O)C(=O)N[C@@H](C)C(=O)N[C@@H]([C@@H](C)O)C(=O)N1)[C@@H](C)O)C(=O)N1CCC[C@H]1C(=O)N[C@@H](CO)C(=O)N[C@@H](CO)C(=O)N[C@H](C(=O)N[C@@H](CC(N)=O)C(=O)N[C@H](C(=O)NCC(=O)N[C@@H](CO)C(=O)N[C@@H](CC(N)=O)C(=O)N[C@H](C(=O)N1CCC[C@H]1C(N)=O)[C@@H](C)O)C(C)C)[C@@H](C)O [Example 10] ({C20 diacid-γGlu}-KCNTATCATQRLADFLRHSSPNFGAIPSSTNVGSNTP-NH2; disulfide 2-7 (inferred))	1.0	1.0	1.0	72 pM	1.0	70 pM	45 h	99 pM
CC[C@H](C)[C@H](NC(=O)[C@H](C)NC(=O)CNC(=O)[C@H](Cc1ccccc1)NC(=O)[C@H](CC(N)=O)NC(=O)[C@@H]1CCCN1C(=O)[C@H](CO)NC(=O)[C@H](CO)NC(=O)[C@H](Cc1c[nH]cn1)NC(=O)[C@H](CCCNC(=N)N)NC(=O)[C@H](CC(C)C)NC(=O)[C@H](Cc1ccccc1)NC(=O)[C@H](CCC(=O)O)NC(=O)[C@H](C)NC(=O)[C@H](CC(C)C)NC(=O)[C@H](CCCNC(=N)N)NC(=O)[C@H](CCC(N)=O)NC(=O)[C@@H](NC(=O)[C@H](C)NC(=O)[C@@H]1CSSC[C@H](NC(=O)[C@H](CCCCN)NC(=O)CC[C@H](NC(=O)CCCCCCCCCCCCCCCCCCC(=O)O)C(=O)O)C(=O)N[C@@H](CC(N)=O)C(=O)N[C@@H]([C@@H](C)O)C(=O)N[C@@H](C)C(=O)N[C@@H]([C@@H](C)O)C(=O)N1)[C@@H](C)O)C(=O)N1CCC[C@H]1C(=O)N[C@@H](CO)C(=O)N[C@@H](CO)C(=O)N[C@H](C(=O)N[C@@H](CC(N)=O)C(=O)N[C@H](C(=O)NCC(=O)N[C@@H](Cc1c[nH]cn1)C(=O)N[C@@H](CC(N)=O)C(=O)N[C@H](C(=O)N[C@@H](Cc1ccc(O)cc1)C(N)=O)[C@@H](C)O)C(C)C)[C@@H](C)O [Example 17] ({C20 diacid-γGlu}-KCNTATCATQRLAEFLRHSSPNFGAIPSSTNVGHNTY-NH2; disulfide 2-7 (inferred))		8.8	8.8	268 pM	8.8	2350 pM	45 h	10900 pM
CC[C@H](C)[C@H](NC(=O)[C@H](C)NC(=O)CNC(=O)[C@H](Cc1ccccc1)NC(=O)[C@H](CC(N)=O)NC(=O)[C@@H]1CCCN1C(=O)[C@H](CO)NC(=O)[C@H](CO)NC(=O)[C@H](Cc1c[nH]cn1)NC(=O)[C@H](CCCNC(=N)N)NC(=O)[C@H](CC(C)C)NC(=O)[C@H](Cc1ccccc1)NC(=O)[C@H](CC(N)=O)NC(=O)[C@H](C)NC(=O)[C@H](CC(C)C)NC(=O)[C@H](CCCNC(=N)N)NC(=O)[C@H](CCC(N)=O)NC(=O)[C@@H](NC(=O)[C@H](C)NC(=O)[C@@H]1CSSC[C@H](NC(=O)[C@@H](N)CCCCNC(=O)CC[C@H](NC(=O)CC[C@H](NC(=O)CCCCCCCCCCCCCCCCCCC(=O)O)C(=O)O)C(=O)O)C(=O)N[C@@H](CC(N)=O)C(=O)N[C@@H]([C@@H](C)O)C(=O)N[C@@H](C)C(=O)N[C@@H]([C@@H](C)O)C(=O)N1)[C@@H](C)O)C(=O)N1CCC[C@H]1C(=O)N[C@@H](CO)C(=O)N[C@@H](CO)C(=O)N[C@H](C(=O)N1CCC[C@H]1C(=O)N[C@H](C(=O)NCC(=O)N1CCC[C@H]1C(=O)N[C@@H](CCCNC(=N)N)C(=O)N[C@H](C(=O)N[C@@H](Cc1ccc(O)cc1)C(N)=O)[C@@H](C)O)C(C)C)[C@@H](C)O [Example 119] (H-K([γGlu-γGlu-C20 diacid])CNTATCATQRLANFLRHSSPNFGAIPSSTPVGPRTY-NH2; disulfide 2-7)		26.0	26.0	333 pM	26.0	8660 pM	10 h	42800 pM
CC[C@H](C)[C@H](NC(=O)[C@H](C)NC(=O)CNC(=O)[C@H](Cc1ccccc1)NC(=O)[C@H](CC(N)=O)NC(=O)[C@@H]1CCCN1C(=O)[C@H](CO)NC(=O)[C@H](CO)NC(=O)[C@H](Cc1c[nH]cn1)NC(=O)[C@H](CCCNC(=N)N)NC(=O)[C@H](CC(C)C)NC(=O)[C@H](Cc1ccccc1)NC(=O)[C@H](CCC(=O)O)NC(=O)[C@H](C)NC(=O)[C@H](CC(C)C)NC(=O)[C@H](CCCNC(=N)N)NC(=O)[C@H](CCC(N)=O)NC(=O)[C@@H](NC(=O)[C@H](C)NC(=O)[C@@H]1CSSC[C@H](NC(=O)[C@H](CCCCN)NC(=O)COCCOCCNC(=O)COCCOCCNC(=O)CC[C@H](NC(=O)CCCCCCCCCCCCCCCCCCC(=O)O)C(=O)O)C(=O)N[C@@H](CC(N)=O)C(=O)N[C@@H]([C@@H](C)O)C(=O)N[C@@H](C)C(=O)N[C@@H]([C@@H](C)O)C(=O)N1)[C@@H](C)O)C(=O)N1CCC[C@H]1C(=O)N[C@@H](CO)C(=O)N[C@@H](CO)C(=O)N[C@H](C(=O)N[C@@H](CC(N)=O)C(=O)N[C@H](C(=O)NCC(=O)N[C@@H](CO)C(=O)N[C@@H](CC(N)=O)C(=O)N[C@H](C(=O)N1CCC[C@H]1C(N)=O)[C@@H](C)O)C(C)C)[C@@H](C)O [Example 20] ({C20 diacid-γGlu-AEEA-AEEA}-KCNTATCATQRLAEFLRHSSPNFGAIPSSTNVGSNTP-NH2; disulfide 2-7)	3.6	3.6	3.6	80 pM	3.6	285 pM	45 h	787 pM
